# Results reported in patent US20060116316A1, “Heterocyclic inhibitors of IRES-mediated translation and methods of use thereof” (priority 2004, published 2006).
# Where a SMILES comes first, the peptide text is derived from it.
# Test system: HCV IRES
# Assay: HCV IRES reporter FACS assay (GFP expression ratio, intein-expressed cyclic peptides)
# Assay type: cell-based, Hepatitis C virus
# Details: 3-mers from mutant intein scaffold, junction Val-His-Asn-X1X2X3-Trp-Ile-Ser; ratio at least 1.20 = significant activity
# Description: [The source words this procedure for another variant and says it was used here with some conditions changed.] Cells producing libraries of cyclic 3-mers and 4-mers (i.e., libraries of cyclic peptides that contain 3 or 4 amino acid residues) were constructed using methods identical to those of Kinsella et al (J Biol. Chem. 2002 277:37512-8), except different oligonucleotides were used for library construction. Clones from this library were screened in an assay shown in FIG. 2 to identify IRES-inhibitory compounds.
# In summary, separate cyclic 3-mer and cyclic 4-mer libraries were constructed such that each peptide of the library contained a fixed Ser, Thr or Cys residue (at position 1) and the remaining residues were randomized. For library construction, degenerate oligonucleotides of sequence 5′-[…](AGC/ACC/TGC)(NNK)2 or 3 TGCATCAGCGGCGACAG-3′ were annealed to the primer 5′-[…]-3′ and extended using the Expand PCR kit (Roche Molecular Biochemicals). The double-stranded DNA insert was digested and inserted into the BclI/DrdI sites of DnaBO-e-BFP (ACUC). The plasmid libraries were electroporated into ElectroMAX DH 10B competent E. coli (Invitrogen) for amplification on LB+amp agar medium. […] Expression of the intein is detected by detecting BFP expression. Expression of the intein (and the cyclic peptide produced by the intein) is suppressible by addition of exogenous doxycycline. The amino acid sequence of the junctions of the intein scaffold used in making the 3-mer library is Val-His-Asn-X3 or 4-Cys-Ile-Ser, where X3 or 4 are three or four contiguous amino acids.
# Infectious retroviral particles were produced by transfection of 15 µg of each library (as described in Swift et al, (1999). Current Protocols in Immunology Vol. 10.17C, pp. 1-17, Freeman, N.Y.) into approximately 5×10^6 Phoenix-A packaging cells. Each resulting library of retroviral particles was then used to infect 5×10^6 BJAB-S3A11 reporter cells and a FACS based selection was carried out to isolate cells with reduced HCV-IRES reporter output.
# In detail, referring to FIG. 2, the cells used in the assay contained an IRES-dependent reporter system. […]. Also present in the cells is a control reporter system for assaying the activity of 5′ cap-dependent translation (the mechanism by which most cellular proteins are normally translated). The control reporter system contains a CMV promoter that drives the transcription of an RNA containing 5′ cap-dependent UTR, operably linked to an RNA encoding RFP (red fluorescent protein). Translation of RFP is dependent on the activity of the 5′ cap-dependent UTR.
# Cells containing both the cyclic compound library and the reporter systems described above were first screened for survival upon exposure to diptheria toxin, and then screened by FACS to identify cells that had reduced GFP expression, as compared to RFP expression. Cells were expanded and replica-plated and grown in the presence or absence of dox (100 ng/ml) for four days. Plates were stimulated with IL-4 and GFP expression (relative to RFP) was monitored by flow cytometry. The IRES-inhibitory activity of a peptide is evaluated by calculating the ratio of the geometric mean of GFP expression of peptide positive cells (“peptide pos+” cells i.e., cells not contacted with dox) to the geometric mean of GFP expression of peptide negative cells (“peptide pos−” cells i.e., cells contacted with dox).
# Cyclic peptides assigned higher scores have a greater IRES-inhibitory activity.
# The number shown in parentheses after each of the amino acid sequences is the IRES-inhibitory activity ratio, as discussed above.
row,SMILES,"IRES-inhibitory activity ratio (geometric mean GFP expression, peptide positive cells / peptide negative cells)"
1,"C[C@@H]1NC(=O)[C@H]([C@@H](C)O)NC(=O)[C@H](Cc2c[nH]c3ccccc23)NC1=O [cyclo-TAW, cyclo[TAW]] (cyclo(Ala-Trp-Thr))",5.09
2,"NC(=O)C[C@@H]1NC(=O)[C@H](CO)NC(=O)[C@H](Cc2c[nH]c3ccccc23)NC1=O [cyclo-SNW, cyclo[SNW]] (cyclo(Asn-Trp-Ser))",2.10

# Same assay, conditions: 3-mers from mutant intein scaffold, junction Val-His-Tyr-X1X2X3-Cys-Ile-Ser; ratio at least 1.20 = significant activity
row,SMILES,"IRES-inhibitory activity ratio (geometric mean GFP expression, peptide positive cells / peptide negative cells)"
1,"CC(C)[C@@H]1NC(=O)[C@H](CCC(=O)O)NC(=O)[C@H](CO)NC1=O [cyclo-SEV, cyclo[SEV]] (cyclo(Glu-Val-Ser))",1.93

# Same assay, conditions: BJAB-S3A11 reporter cells, +/- dox 100 ng/ml four days; library intein junction Val-His-Asn-X1X2X3-Cys-Ile-Ser; ratio at least 1.20 = significant activity
row,SMILES,"IRES-inhibitory activity ratio (geometric mean GFP expression, peptide positive cells / peptide negative cells)"
1,"C[C@@H]1NC(=O)[C@H](CO)NC(=O)[C@H](Cc2c[nH]c3ccccc23)NC1=O [cyclo-SAW, cyclo[SAW]] (cyclo(Ala-Trp-Ser))",1.21
2,"O=C1N[C@@H](Cc2ccccc2)C(=O)N[C@@H](Cc2c[nH]c3ccccc23)C(=O)N[C@H]1CO [cyclo-SFW, cyclo[SFW]] (cyclo(Phe-Trp-Ser))",1.55
3,"CCC(C)[C@@H]1NC(=O)[C@H](CO)NC(=O)[C@H](C(C)C)NC1=O (stereo partly shown) [cyclo-SIV, cyclo[SIV]]",1.4
4,"C[C@@H](O)[C@@H]1NC(=O)[C@H](Cc2c[nH]c3ccccc23)NC(=O)[C@H](Cc2cnc[nH]2)NC1=O [cyclo-THW, cyclo[THW]] (cyclo(His-Trp-Thr))",1.49
5,"CC(C)C[C@@H]1NC(=O)[C@H]([C@@H](C)O)NC(=O)[C@H](Cc2c[nH]c3ccccc23)NC1=O [cyclo-TLW, cyclo[TLW]] (cyclo(Leu-Trp-Thr))",1.2
6,"CC(C)[C@@H]1NC(=O)[C@H](Cc2ccc(O)cc2)NC(=O)[C@H](CO)NC1=O [cyclo-SYV, cyclo[SYV]] (cyclo(Ser-Tyr-Val))",1.4
7,"O=C1N[C@@H](Cc2c[nH]c3ccccc23)C(=O)N[C@@H](Cc2c[nH]c3ccccc23)C(=O)N[C@H]1CO [cyclo-SWW, cyclo[SWW]] (cyclo(Ser-Trp-Trp))",2.37
